Laboratory results as given in US12071411B2, “Inhibitors of HIF-2α and methods of use thereof” (ARCUS BIOSCIENCES, INC., priority 2021, dated 2024).

Key:
[1] = target: T1, HIF-2α (Homo sapiens, UniProt Q99814); assay: HIF-2α Luciferase Reporter Assay (serum free) in HIF-Luc-786-0 cells; assay type: cell-based; conditions: Opti-MEM, 786-0 reporter cells, 20 hours incubation
Outline: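 786-0 cells stably transduced with HIF luciferase reporter, 20,000 cells/well in serum-free Opti-MEM, compounds (50 uM downward, 1% DMSO) 20 h at 37 °C. ONE-Glo luminescence normalized to DMSO and no-cell controls; IC50 from four-parameter fit.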

[2] = target: T1, HIF-2α; assay: HIF-2α Luciferase Reporter Assay (serum), HRE-luciferase 786-0 cells in 100% human serum; assay type: cell-based; conditions: for IC50: 100% human serum, 786-0 reporter cells, overnight incubation, read-out: Serum Potency; for Serum Shift (approximate): ratio of IC50 in 100% serum to IC50 in serum free conditions
Protocol: Generation of HIF-2α Luciferase 786-0 Cell Line:
Stable cell lines were generated by transducing 786-0 cells (ATCC, CRL-1932) with Cignal Lenti HIF Luc Reporter lentivirus (CLS-007L, Qiagen) according to the manufacturer's guidelines. In brief, 0.3×10^6 786-0 cells were transduced with lentivirus at a multiplicity of infection (MOI) of 25 for 24 hours. After transduction, cells were replenished with fresh RPMI 1640 Medium (Cat. No. 11875085, Thermo Fisher) supplemented with 10% FBS (Cat. No. A3160502, Gibco), 2 mM GlutaMAX™ (Cat. No. 35050-061, Invitrogen) and 100 units of penicillin and 100 μg of streptomycin/mL (Cat. No 15070063, Thermo Fisher) for another 24 hours. Antibiotic selection was performed in cell media containing 4 μg/mL of puromycin. After 7 days of antibiotic selection, stable pools of surviving cells were expanded and used in a luciferase reporter assay.
HIF-2α Luciferase Reporter Assay (Serum):
An HRE-luciferase stable reporter 786-0 cell line was maintained in active culture using RPMI 1640 (GIBCO) media supplemented with 1% penicillin-streptomycin, 1% GlutaMAX™, 10% FBS-One Shot (GIBCO) and 4 ug/ml of puromycin (Invitrogen). On the day of the assay, cells were harvested using StemPro™ Accutase™ cell dissociation reagent (GIBCO) and resuspended at 1.5 million cells per milliliter in Opti-MEM™ (GIBCO). 20 ul/well of the resuspended cells were dispensed into a 384 white tissue culture-treated microplate (Corning) and allowed to incubate at 37° C., 5% CO2 for 3 hours. Compounds were prepared by dispensing 0.8 ul of compound in 100% DMSO into a Greiner plate containing 40 ul/well of 100% human serum (Bioreclamation IVT). After 3 hours, media was removed via centrifugation at 500 RPM for 30 seconds and 30 ul/well of compound diluted in human serum was added. The plate was incubated overnight at 37° C., 5% CO2. The following day, ONE-Glo™ was prepared per vendors instructions. The cell plate was removed from the incubator and the human serum was removed from the plate using centrifugation at 500 RPM for 30 seconds. Following the removal of human serum, 40 ul/well of room temperature Opti-MEM™ was added to the plate and allowed to equilibrate to room temperature for 2 hours. 40 ul/well of ONE-Glo™ reagent was added and allowed to incubate for 10 minutes before reading the luminescence signal on the Envision (PerkinElmer). Data was analyzed using 4-parameter logistic equation to generate IC50.

T1 sequence (Q99814 whole entry): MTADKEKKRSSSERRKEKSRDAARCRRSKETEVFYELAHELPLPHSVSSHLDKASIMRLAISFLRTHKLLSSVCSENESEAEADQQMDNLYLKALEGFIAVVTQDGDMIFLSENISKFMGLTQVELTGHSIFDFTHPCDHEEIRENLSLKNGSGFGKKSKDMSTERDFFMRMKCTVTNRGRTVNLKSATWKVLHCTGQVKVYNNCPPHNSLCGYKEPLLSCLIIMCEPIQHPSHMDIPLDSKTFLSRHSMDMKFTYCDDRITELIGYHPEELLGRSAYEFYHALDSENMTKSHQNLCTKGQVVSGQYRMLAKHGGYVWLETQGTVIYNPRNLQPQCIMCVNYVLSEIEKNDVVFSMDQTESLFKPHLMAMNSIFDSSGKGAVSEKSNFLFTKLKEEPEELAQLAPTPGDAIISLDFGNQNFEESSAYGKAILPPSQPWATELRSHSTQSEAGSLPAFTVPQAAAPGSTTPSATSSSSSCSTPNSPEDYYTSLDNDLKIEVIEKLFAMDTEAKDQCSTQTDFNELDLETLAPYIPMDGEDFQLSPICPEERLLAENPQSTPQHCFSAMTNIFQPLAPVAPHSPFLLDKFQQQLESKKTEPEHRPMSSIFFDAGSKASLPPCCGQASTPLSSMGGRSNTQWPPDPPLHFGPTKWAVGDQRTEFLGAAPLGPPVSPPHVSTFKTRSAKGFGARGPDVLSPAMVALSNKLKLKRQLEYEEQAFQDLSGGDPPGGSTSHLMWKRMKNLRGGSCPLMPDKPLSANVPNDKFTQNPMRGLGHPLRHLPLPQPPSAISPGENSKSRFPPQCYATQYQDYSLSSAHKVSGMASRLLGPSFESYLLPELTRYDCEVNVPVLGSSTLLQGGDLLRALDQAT

| IC50 [1] | IC50 [2] | Serum Shift (approximate) [2] | SMILES |
| --- | --- | --- | --- |
| < 100 nM | > 1000 nM | 11 | O[C@H]1c2c(C(F)(F)F)nn(CCCC(F)(F)F)c2[C@H](F)C1(F)F (single isomer, unassigned) [Example 124] |
| < 100 nM | < 100 nM | 6 | CC(CCn1nc(C(F)(F)F)c2c1CCC(F)(F)[C@H]2O)OC(F)F (stereo partly drawn) [Example 15, (4S)-1-[3-(difluoromethoxy)butyl]-5,5-difluoro-3-(trifluoromethyl)-6,7-dihydro-4H-indazol-4-ol] |
| 100 to 1000 nM | 100 to 1000 nM | 3 | O[C@H]1c2c(C(F)(F)F)nn(CCC3CC3(F)F)c2[C@@H](F)[C@H]1F (stereo partly drawn) [Example 152, (4S,5S,6R)-1-[2-(2,2-difluorocyclopropyl)ethyl]-5,6-difluoro-3-(trifluoromethyl)-5,6-dihydro-4H-cyclopenta[c]pyrazol-4-ol] |
| < 100 nM | > 1000 nM | 7 | O[C@H]1c2c(C(F)(F)F)nn([C@H]3CC[C@H](F)CC3)c2CC1(F)F [Example 96, (4S)-5,5-difluoro-1-(4-fluorocyclohexyl)-3-(trifluoromethyl)-4,6-dihydrocyclopenta[c]pyrazol-4-ol] |
| < 100 nM | 100 to 1000 nM | 3 | O[C@H]1c2c(C(F)(F)F)nn(C3CC[C@H](F)[C@H](F)C3)c2CC1(F)F (single isomer, unassigned) [72/73 DIAST-2] |
| < 100 nM | 100 to 1000 nM | 8 | O[C@H]1c2c(C(F)(F)F)nn(CCCOC(F)(F)F)c2CCC1(F)F [Example 30, (4S)-5,5-difluoro-1-[3-(trifluoromethoxy)propyl]-3-(trifluoromethyl)-6,7-dihydro-4H-indazol-4-ol] |
| < 100 nM | > 1000 nM | 9 | CO[C@H]1C[C@H](n2nc(C(F)(F)F)c3c2CC(F)(F)[C@H]3O)CCC1(F)F (racemic) [Example 111, (4S)-1-[(1R,3S)-4,4-difluoro-3-methoxycyclohexyl]-5,5-difluoro-3-(trifluoromethyl)-1H,4H,5H,6H-cyclopenta[c]pyrazol-4-ol and (4S)-1-[(1S,3R)-4,4-difluoro-3-methoxycyclohexyl]-5,5-difluoro-3-(trifluoromethyl)-1H,4H,5H,6H-cyclopenta[c]pyrazol-4-ol] |
| 100 to 1000 nM | > 1000 nM | >41 | O[C@H]1c2c(C(F)(F)F)nn([C@@H]3CCC[C@@H](C(F)(F)F)C3)c2CC1(F)F [Example 80, (4S)-5,5-difluoro-3-(trifluoromethyl)-1-[(1R)-3-(trifluoromethyl)cyclohexyl]-1H,4H,5H,6H-cyclopenta[c]pyrazol-4-ol] |
| < 100 nM | > 1000 nM | 6 | O[C@H]1c2c(C(F)(F)F)nn(CCCC(F)(F)F)c2[C@H](F)[C@H]1F [Example 139, (4S,5S,6S)-5,6-difluoro-1-(4,4,4-trifluorobutyl)-3-(trifluoromethyl)-5,6-dihydro-4H-cyclopenta[c]pyrazol-4-ol] |
| < 100 nM | < 100 nM | 6 | CC(CCn1nc(C(F)(F)F)c2c1CCC(F)(F)[C@H]2O)OC(F)(F)F (stereo partly drawn) [Example 14, (4S)-5,5-difluoro-1-[3-(trifluoromethoxy)butyl]-3-(trifluoromethyl)-6,7-dihydro-4H-indazol-4-ol] |
| < 100 nM | > 1000 nM | 4 | O[C@H]1c2c(C(F)(F)F)nn([C@H]3CCCC(F)(F)C3)c2[C@@H](F)[C@H]1F (single isomer, unassigned) [136/137 DIAST-1] |
| < 100 nM | > 1000 nM | 11 | CCO[C@H](CCn1nc(C(F)(F)F)c2c1CC(F)(F)[C@H]2O)C(F)(F)F [Example 101, (4S)-1-[(3R)-3-ethoxy-4,4,4-trifluorobutyl]-5,5-difluoro-3-(trifluoromethyl)-4,6-dihydrocyclopenta[c]pyrazol-4-ol] |
| < 100 nM | 100 to 1000 nM | 4 | O=S(=O)(CCn1nc(C(F)(F)F)c2c1CCC(F)(F)[C@H]2O)C(F)(F)F [Example 8, (4S)-5,5-difluoro-3-(trifluoromethyl)-1-[2-(trifluoromethylsulfonyl)ethyl]-6,7-dihydro-4H-indazol-4-ol] |
| < 100 nM | > 1000 nM | 9 | O[C@H]1c2c(C(F)(F)F)nn([C@@H]3C[C@@H](F)[C@@H](F)[C@@H](F)C3)c2[C@H](F)[C@H]1F [Example 138, (4S,5S,6S)-5,6-difluoro-1-[(3R,5S)-3,4,5-trifluorocyclohexyl]-3-(trifluoromethyl)-5,6-dihydro-4H-cyclopenta[c]pyrazol-4-ol] |
| 100 to 1000 nM | > 1000 nM | 17 | O[C@H]1c2c(C(F)(F)F)nn(CCCOC(F)(F)F)c2[C@H](F)CC1(F)F (single isomer, unassigned) [129/130 DIAST-2] |
| < 100 nM | 100 to 1000 nM | 6 | O[C@H]1c2c(C(F)(F)F)nn([C@H]3CCC[C@@H](F)C3)c2CC1(F)F (racemic) [90 DIAST-1, (4S)-5,5-difluoro-1-[(rel-1S,3R)-3-fluorocyclohexyl]-3-(trifluoromethyl)-4,6-dihydrocyclopenta[c]pyrazol-4-ol] |
| < 100 nM | 100 to 1000 nM | 8 | O[C@H]1c2c(C(F)(F)F)nn([C@@H]3CC[C@@H](F)[C@@H](F)C3)c2[C@@H](F)C1(F)F [Example 156, (4S,6R)-1-[(1R,3S,4R)-3,4-difluorocyclohexyl]-5,5,6-trifluoro-3-(trifluoromethyl)-4,6-dihydrocyclopenta[c]pyrazol-4-ol] |
| < 100 nM | > 1000 nM | 12 | O[C@H]1c2c(C(F)(F)F)nn([C@H]3C[C@@]4(CC4(F)F)C3)c2CC1(F)F [Example 64, (4S)-5,5-difluoro-1-[(3r,5r)-1,1-difluorospiro[2.3]hexan-5-yl]-3-(trifluoromethyl)-4,6-dihydrocyclopenta[c]pyrazol-4-ol] |
| 100 to 1000 nM | 100 to 1000 nM | 0 | O[C@H]1c2c(C(F)(F)F)nn([C@@H]3C[C@@H](F)[C@@H](F)[C@@H](F)C3)c2CC1(F)F [Example 70, (4S)-5,5-difluoro-1-[(3R,5S)-3,4,5-trifluorocyclohexyl]-3-(trifluoromethyl)-4,6-dihydrocyclopenta[c]pyrazol-4-ol] |
| < 100 nM | > 1000 nM | 13 | O[C@H]1c2c(C(F)(F)F)nn(CCc3cccc(F)c3)c2CC1(F)F [Example 79, (4S)-5,5-difluoro-1-[2-(3-fluorophenyl)ethyl]-3-(trifluoromethyl)-1H,4H,5H,6H-cyclopenta[c]pyrazol-4-ol] |
| < 100 nM | 100 to 1000 nM | 7 | O[C@H]1c2c(C(F)(F)F)nn([C@@H]3C[C@H](F)C[C@H](F)C3)c2CC1(F)F [Example 89, (4S)-1-[(3R,5S)-3,5-difluorocyclohexyl]-5,5-difluoro-3-(trifluoromethyl)-4,6-dihydrocyclopenta[c]pyrazol-4-ol] |
| 100 to 1000 nM | > 1000 nM | 10 | O[C@H]1c2c(C(F)(F)F)nn(C[C@H](F)C3CC3)c2CCC1(F)F (single isomer, unassigned) [26/27 DIAST-2] |
| 100 to 1000 nM | > 1000 nM | 4 | O[C@H]1c2c(C(F)(F)F)nn(CCCOC(F)(F)F)c2C[C@@H]1F [Example 63, (4S,5S)-5-fluoro-1-[3-(trifluoromethoxy)propyl]-3-(trifluoromethyl)-5,6-dihydro-4H-cyclopenta[c]pyrazol-4-ol] |

| SMILES | IC50 [1] | IC50 [2] | Serum Shift (approximate) [2] |
| --- | --- | --- | --- |
| O[C@H]1c2c(C(F)(F)F)nn(C3CCC(F)(F)CC3)c2CC1(F)F [Example 53, (4S)-1-(4,4-difluorocyclohexyl)-5,5-difluoro-3-(trifluoromethyl)-4,6-dihydrocyclopenta[c]pyrazol-4-ol] | < 100 nM | 100 to 1000 nM | 7 |
